Assay results as given in patent US9040663B2, “Melanocortin receptor-specific peptides” (AstraZeneca AB, priority 2009, dated 2015).
Where two headings read alike, the source gives them in different places.

Legend:
hMC4-R [1] = biological target: T1, hMC4-R (Homo sapiens (Human), UniProt P32245); assay: Competitive inhibition binding assay using [I125]-NDP-α-MSH, hMC4-R; settings: membranes of HEK-293 cells expressing recombinant hMC4-R, read-out: MC4-R Ki
MC1-R = assay: Competitive inhibition binding assay using [I125]-NDP-α-MSH, MC1-R; settings: membranes of B-16 mouse melanoma cells (endogenous MC1-R), in some instances HEK-293 hMC1-R
In short: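 Radioligand displacement on membranes from B-16 mouse melanoma cells (endogenous MC1-R) or HEK-293 expressing recombinant hMC1-R, with 0.1 nM [I125]-NDP-α-MSH and increasing peptide concentrations in HEPES pH 7.5 buffer, 60 min at 37° C.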

hMC4-R [2] = biological target: T1, hMC4-R; assay: High and low density hMC4-R functional assay (cAMP, HEK293-T-REx-MC4-R cells); assay type: cell-based; settings: for Emax: NDP-α-MSH = 100%, read-out: Intrinsic Activity (%)
[3] = 0.1 ng/mL Doxycycline (low density hMC4-R system)
[4] = 10 ng/mL Doxycycline (high density hMC4-R system)

T1 sequence (P32245 whole entry): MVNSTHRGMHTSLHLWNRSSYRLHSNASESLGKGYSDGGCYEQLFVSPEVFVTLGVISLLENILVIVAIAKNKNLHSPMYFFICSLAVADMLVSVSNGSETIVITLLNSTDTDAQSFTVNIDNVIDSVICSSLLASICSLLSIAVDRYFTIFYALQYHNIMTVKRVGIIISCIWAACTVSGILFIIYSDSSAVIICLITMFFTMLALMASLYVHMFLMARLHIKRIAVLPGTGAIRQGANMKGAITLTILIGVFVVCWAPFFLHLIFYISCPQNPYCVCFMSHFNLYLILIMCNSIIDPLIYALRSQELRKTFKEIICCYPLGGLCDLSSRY

SMILES | Ki (hMC4-R [1]) [nM] | Ki (MC1-R) [nM] | EC50 (hMC4-R [2]; [3]) [nM] | Emax (hMC4-R [2]; [3]) [%] | EC50 (hMC4-R [2]; [4]) [nM] | Emax (hMC4-R [2]; [4]) [%]
CC(=O)N[C@H](CCCNC(=N)N)C(=O)N[C@H]1CCCNC(=O)CC[C@@H](C(N)=O)NC(=O)[C@H](Cc2c[nH]c3ccccc23)NC(=O)[C@H](CCCNC(=N)N)NC(=O)[C@@H](Cc2ccccc2F)NC(=O)[C@H](Cc2c[nH]cn2)NC1=O [Example 53, Ac-D-Arg-cyclo(Orn-His-D-Phe(2-F)-Arg-Trp-Glu)-NH2] | 0.95 | 0.75 | 0.13 | 86 | 0.13 | 90
CC(=O)N[C@@H](CCCNC(=N)N)C(=O)N[C@H]1CCC(=O)NCCC[C@@H](C(=O)O)NC(=O)[C@H](Cc2c[nH]c3ccccc23)NC(=O)[C@H](CCCNC(=N)N)NC(=O)[C@@H](Cc2cccc(Cl)c2)NC(=O)[C@H](CCCN)NC1=O [Example 55, Ac-Arg-cyclo(Glu-Orn-D-Phe(3-Cl)-Arg-Trp-Orn)-OH] | 20 | 23 | 10 | 28 | 0.8 | 98
CC(=O)NCC[C@@H]1NC(=O)[C@@H](NC(=O)[C@H](CCCNC(=N)N)NC(C)=O)CCC(=O)NCCC[C@@H](C(N)=O)NC(=O)[C@H](Cc2c[nH]c3ccccc23)NC(=O)[C@H](CCCNC(=N)N)NC(=O)[C@@H](Cc2ccccc2Cl)NC1=O [Example 56, Ac-Arg-cyclo(Glu-Dab(Acetyl)-D-Phe(2-Cl)-Arg-Trp-Orn)-NH2] | 11 | 30 | 5 | 41 | 0.3 | 98
CC(=O)N[C@H](CCCNC(=N)N)C(=O)N[C@H]1CCCNC(=O)CC[C@@H](C(N)=O)NC(=O)[C@H](Cc2c[nH]c3ccccc23)NC(=O)[C@H](CCCNC(=N)N)NC(=O)[C@@H](Cc2ccc(F)cc2)NC(=O)[C@H](Cc2c[nH]cn2)NC1=O [Example 57, Ac-D-Arg-cyclo(Orn-His-D-Phe(4-F)-Arg-Trp-Glu)-NH2] | 0.65 | 1 | 0.25 | 89 | 0.095 | 100
CC(=O)N[C@@H](CCCNC(=N)N)C(=O)N[C@H]1CCC(=O)NCCC[C@@H](C(N)=O)NC(=O)[C@H](Cc2c[nH]c3ccccc23)NC(=O)[C@H](CCCNC(=N)N)NC(=O)[C@@H](Cc2ccc(F)cc2)NC(=O)[C@@H]2C[C@@H](O)CN2C1=O [Example 60, Ac-Arg-cyclo(Glu-Hyp-D-Phe(4-F)-Arg-Trp-Orn)-NH2] | 1 | 89 | 0.45 | 62 | 0.14 | 95
CC(=O)N[C@@H](CCCNC(=N)N)C(=O)N[C@H]1CCC(=O)NCCC[C@@H](C(N)=O)NC(=O)[C@H](Cc2c[nH]c3ccccc23)NC(=O)[C@H](CCCNC(=N)N)NC(=O)[C@@H](Cc2ccccc2Cl)NC(=O)[C@H]([C@@H](C)OCc2ccccc2)NC1=O [Example 63, Ac-Arg-cyclo(Glu-Thr(Bzl)-D-Phe(2-Cl)-Arg-Trp-Orn)-NH2] | 0.35 | 12 | 0.37 | 30 | 0.157 | 93
CC(=O)N[C@@H](CCCNC(=N)N)C(=O)N[C@H]1CCC(=O)NCCC[C@@H](C(N)=O)NC(=O)[C@H](Cc2c[nH]c3ccccc23)NC(=O)[C@H](CCCNC(=N)N)NC(=O)[C@@H](Cc2ccccc2F)NC(=O)[C@@H]2C[C@@H](O)CN2C1=O [Example 64, Ac-Arg-cyclo(Glu-Hyp-D-Phe(2-F)-Arg-Trp-Orn)-NH2] | 3 | 53 | 1 | 57 | 0.08 | 90
CC(=O)N[C@@H](CCCNC(=N)N)C(=O)N[C@H]1CCC(=O)NCCC[C@@H](C(N)=O)NC(=O)[C@H](Cc2c[nH]c3ccccc23)NC(=O)[C@H](CCCNC(=N)N)NC(=O)[C@@H](Cc2ccc(F)cc2)NC(=O)[C@H](CO)NC1=O [Example 65, Ac-Arg-cyclo(Glu-Ser-D-Phe(4-F)-Arg-Trp-Orn)-NH2] | 5 | 43 | 1 | 58 | 0.085 | 93
CC(=O)N[C@@H](CCCNC(=N)N)C(=O)N[C@H]1CCC(=O)NCCC[C@@H](C(N)=O)NC(=O)[C@H](Cc2c[nH]c3ccccc23)NC(=O)[C@H](CCCNC(=N)N)NC(=O)[C@@H](Cc2ccccc2F)NC(=O)[C@@H]2CCCN2C1=O [Example 66, Ac-Arg-cyclo(Glu-Pro-D-Phe(2-F)-Arg-Trp-Orn)-NH2] | 6 | 95 | 5 | 32 | 0.265 | 88
CC(=O)N[C@@H](CCCNC(=N)N)C(=O)N[C@H]1CCC(=O)NCCC[C@@H](C(N)=O)NC(=O)[C@H](Cc2c[nH]c3ccccc23)NC(=O)[C@H](CCCNC(=N)N)NC(=O)[C@@H](Cc2ccc(F)cc2)NC(=O)[C@H](CCS(C)(=O)=O)NC1=O [Example 68, Ac-Arg-cyclo(Glu-Met(O2)-D-Phe(4-F)-Arg-Trp-Orn)-NH2] | 2 | 33 | 0.85 | 55 | 0.075 | 91
CC(=O)N[C@@H](CCCNC(=N)N)C(=O)N[C@H]1CCC(=O)NCCC[C@@H](C(N)=O)NC(=O)[C@H](Cc2c[nH]c3ccccc23)NC(=O)[C@H](CCCNC(=N)N)NC(=O)[C@@H](Cc2ccc(F)cc2)NC(=O)[C@H](CC(N)=O)NC1=O [Example 69, Ac-Arg-cyclo(Glu-Asn-D-Phe(4-F)-Arg-Trp-Orn)-NH2] | 3 | 150 | 0.25 | 76 | 0.095 | 92
CC(=O)N[C@@H](CCCNC(=N)N)C(=O)N[C@H]1CCCNC(=O)CC[C@@H](C(N)=O)NC(=O)[C@H](Cc2c[nH]c3ccccc23)NC(=O)[C@H](CCCNC(=N)N)NC(=O)[C@@H](Cc2ccccc2F)NC(=O)[C@H](CC(N)=O)NC1=O [Example 71, Ac-Arg-cyclo(Orn-Asn-D-Phe(2-F)-Arg-Trp-Glu)-NH2] | 9 | 335 | 1 | 86 | 0.085 | 91
CC(=O)N[C@@H](CCCNC(=N)N)C(=O)N[C@H]1CCCNC(=O)CC[C@@H](C(N)=O)NC(=O)[C@H](Cc2c[nH]c3ccccc23)NC(=O)[C@H](CCCNC(=N)N)NC(=O)[C@@H](Cc2ccccc2C)NC(=O)[C@H](CC(N)=O)NC1=O [Example 74, Ac-Arg-cyclo(Orn-Asn-D-Phe(2-Me)-Arg-Trp-Glu)-NH2] | 5 | 405 |  | 68 |  | 100
CC(=O)N[C@@H](CCCNC(=N)N)C(=O)N[C@H]1CCCNC(=O)CC[C@@H](C(N)=O)NC(=O)[C@H](Cc2c[nH]c3ccccc23)NC(=O)[C@H](CCCNC(=N)N)NC(=O)[C@@H](Cc2ccc(F)c(F)c2)NC(=O)[C@H](CC(N)=O)NC1=O [Example 75, Ac-Arg-cyclo(Orn-Asn-D-Phe(3,4-diF)-Arg-Trp-Glu)-NH2] | 3 | 190 | 0.65 | 43 | 0.125 | 87
CC(=O)N[C@@H](CCCNC(=N)N)C(=O)N[C@H]1CCC(=O)NCCC[C@@H](C(N)=O)NC(=O)[C@H](Cc2c[nH]c3ccccc23)NC(=O)[C@H](CCCNC(=N)N)NC(=O)[C@@H](Cc2cc(F)cc(F)c2)NC(=O)[C@H](CC(N)=O)NC1=O [Example 76, Ac-Arg-cyclo(Glu-Asn-D-Phe(3,4-diF)-Arg-Trp-Orn)-NH2] | 20 | 260 | 3 | 53 | 0.135 | 85
CC(=O)N[C@H](CCCNC(=N)N)C(=O)N[C@H]1CC(=O)NCCCC[C@@H](C(N)=O)NC(=O)[C@H](Cc2c[nH]c3ccccc23)NC(=O)[C@H](CCCNC(=N)N)NC(=O)[C@@H](Cc2ccccc2Cl)NC(=O)[C@H](CCC(N)=O)NC1=O [Example 79, Ac-D-Arg-cyclo(Asp-Gln-D-Phe(2-Cl)-Arg-Trp-Lys)-NH2] | 10 | 395 | 4 | 48 | 0.2 | 85
